How the values were obtained:
[1] = biological target: T1, human adenosine A1 receptor (Homo sapiens, UniProt P30542); assay: Reporter gene assay (CRE/SPAP) in CHO cells, agonist potency relative to NECA, adenosine A1 receptor; type: cell-based; parameters: key: equipotent concentration ratio, NECA = 1; settings: ECR = equipotent concentration ratio relative to NECA = 1, inhibition of forskolin-stimulated SPAP production
T1 construct: expressed in transfected cells; host or cells: Chinese hamster ovary (CHO) cells with CRE/SPAP/HYG reporter elements
T1 sequence (P30542 1-326): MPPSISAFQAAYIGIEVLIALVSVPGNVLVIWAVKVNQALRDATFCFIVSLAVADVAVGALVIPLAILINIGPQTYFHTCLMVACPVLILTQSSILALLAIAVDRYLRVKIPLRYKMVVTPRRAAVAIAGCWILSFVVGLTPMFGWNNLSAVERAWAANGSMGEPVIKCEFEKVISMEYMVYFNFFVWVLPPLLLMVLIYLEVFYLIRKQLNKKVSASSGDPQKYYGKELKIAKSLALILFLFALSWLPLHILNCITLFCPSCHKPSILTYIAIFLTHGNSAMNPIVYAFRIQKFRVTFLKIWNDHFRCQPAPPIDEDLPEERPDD
Experimental: (§1) Reporter Gene Experiments
(§2) Agonist activity was measured in Chinese hamster ovary (CHO) cells containing the CRE/SPAP/HYG (CRE=cyclic AMP response element; HYG=hygromycin resistance; SPAP=secreted placental alkaline phosphatase) reporter gene elements, which upon stimulation of cAMP levels produced SPAP. A cell line was used, which was stably transfected with either the human adenosine A1 receptor or the human adenosine A3 receptor in addition to the above elements. Cells were plated out in 96-well plates in culture medium and incubated at 37° C. for 1 hour. For measurement of potency, agonists were added to the appropriate wells at a concentration range of approximately 10^−10- 10^−5M. 15Min later, cAMP levels were stimulated by addition of a maximal concentration of forskolin. All cells were then incubated for a further 5 hours at 37° C., and cooled to room temperature, after which a substrate for the phosphatase (para-nitrophenol phosphate, pNPP), which is converted by SPAP to a coloured reagent) was then added and the 96-well -plates were read in a plate reader. From these readings, the concentration-dependence of the inhibition by the agonist for forskolin-stimulated SPAP production can be calculated. One of the agonists tested on each 96-well plate was the standard non-selective agonist, N-ethylcarboxamidoadenosine (NECA), and the potency of all test agonists is expressed relative to that of the NECA standard.
(§3) (ECR=equipotent concentration ratio relative to NECA=1)

[2] = biological target: T2, human adenosine A3 receptor (Homo sapiens, UniProt P0DMS8); assay: Reporter gene assay (CRE/SPAP) in CHO cells, agonist potency relative to NECA, adenosine A3 receptor; type: cell-based; parameters: key: equipotent concentration ratio, NECA = 1; settings: ECR = equipotent concentration ratio relative to NECA = 1, inhibition of forskolin-stimulated SPAP production
T2 construct: expressed in transfected cells; host or cells: Chinese hamster ovary (CHO) cells with CRE/SPAP/HYG reporter elements
T2 sequence (P0DMS8 1-318): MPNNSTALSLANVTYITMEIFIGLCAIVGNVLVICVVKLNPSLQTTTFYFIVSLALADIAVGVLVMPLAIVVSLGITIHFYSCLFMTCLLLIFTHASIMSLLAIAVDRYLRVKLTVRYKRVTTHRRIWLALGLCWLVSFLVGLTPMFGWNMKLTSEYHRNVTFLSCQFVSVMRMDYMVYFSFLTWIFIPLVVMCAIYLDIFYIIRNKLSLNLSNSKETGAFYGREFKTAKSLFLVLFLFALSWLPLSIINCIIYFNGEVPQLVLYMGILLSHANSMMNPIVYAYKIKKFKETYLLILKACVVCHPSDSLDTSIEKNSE
Experimental: as §1, §2, §3

SMILES | Adenosine A1 receptor ECR* [1] | Adenosine A3 receptor ECR* [2]
CCc1cc([C@H]2O[C@@H](n3cnc4c(NC(CC)CC)nc(Cl)nc43)[C@H](O)[C@@H]2O)no1.O=CO [Example 163, (2R,3R,4S,5R)-2-{2-chloro-6-[(1-ethylpropyl)amino]-9H-purin-9-yl}-5-(5-ethylisoxazol-3-yl)tetrahydrofuran-3,4-diol Formate] | 1.34 | 232
CCNS(=O)(=O)CCNc1ncnc2c1ncn2[C@@H]1O[C@H](c2cc(C(C)(C)C)no2)[C@@H](O)[C@H]1O [Example 177, 2-[(9-{(2R,3R,4S,5S)-5-[3-(tert-butyl)isoxazol-5-yl]-3,4-dihydroxy-tetrahydrofuran-2-yl}-9H-purin-6-yl)amino]-N-ethylethane-sulfonamide] | 2.01 | 122
O[C@@H]1[C@H](O)[C@@H](c2nnc(C(F)(F)F)o2)O[C@H]1n1cnc2c(NC3CCCC3)ncnc21 [Example 178, (2R,3R,4S,5S)-2-[6-(cyclo-pentylamino)-9H-purin-9-yl]-5-[5-(trifluoromethyl)-1,3,4-oxadiazol-2-yl]-tetrahydrofuran-3,4-diol] | 7.42 | >471
CCOC(=O)N1CCC(Nc2ncnc3c2ncn3[C@@H]2O[C@H](c3nnc(C(F)(F)F)o3)[C@@H](O)[C@H]2O)CC1 [Example 180, ethyl 4-[(9-{(2R,3R,4S,5S)-3,4-dihydroxy-5-[5-(trifluoromethyl)-1,3,4-oxadiazol-2-yl]-tetrahydrofuran-2-yl}-9H-purin-6-yl)amino]-piperidine-1-carboxylate] | 18.1 | >471

Reference: patent US6677316B2, “Adenosine derivatives and methods of administration” (SmithKline Beecham Corporation, priority 1998, dated 2004)
